From PubChem BioAssay (NCI)
“And” between values parts separate entries of the source, which are not always exact repeats. Identical values can stand only once.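 Method: 48-hour compound exposure of cells in 96-well plates, five concentrations, linear interpolation of endpoints. GI50: concentration for 50% inhibition of growth. TGI denotes the concentration required for complete inhibition of growth.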

Experiments:
Assay in all cases: NCI anticancer screen, dose series, 48 h
OVCAR-8 ovarian = system: OVCAR-8 ovarian
SNB-19 CNS = system: SNB-19 CNS
HCT-15 colon = system: HCT-15 colon
A549 NSCLC = system: A549 NSCLC
MOLT-4 leukemia = system: MOLT-4 leukemia
M14 melanoma = system: M14 melanoma
HS 578T breast = system: HS 578T breast
786-0 renal = system: 786-0 renal
IGROV1 ovarian = system: IGROV1 ovarian
SK-OV-3 ovarian = system: SK-OV-3 ovarian
K-562 leukemia = system: K-562 leukemia
TK-10 renal = system: TK-10 renal

| Compound | TGI (OVCAR-8 ovarian) | TGI (SNB-19 CNS) | TGI (HCT-15 colon) | TGI (A549 NSCLC) | TGI (MOLT-4 leukemia) | TGI (M14 melanoma) | TGI (HS 578T breast) | TGI (786-0 renal) | TGI (IGROV1 ovarian) | TGI (SK-OV-3 ovarian) | TGI (K-562 leukemia) | TGI (TK-10 renal) | GI50 (HCT-15 colon) | GI50 (MOLT-4 leukemia) | GI50 (IGROV1 ovarian) | GI50 (SK-OV-3 ovarian) |
| --- | --- | --- | --- | --- | --- | --- | --- | --- | --- | --- | --- | --- | --- | --- | --- | --- |
| CC(=O)Oc1ccc(/C=C/C(=O)OCCCOC(=O)/C=C/c2ccc(OC(C)=O)c(OC(C)=O)c2)cc1OC(C)=O | > 100 µM | > 100 µM | > 100 µM | > 100 µM | > 100 µM | > 100 µM | > 100 µM | > 100 µM | > 100 µM | > 100 µM | > 100 µM | > 100 µM | – | – | – | – |
| CC(C)=CCN1CC(C)C(=O)Nc2ccccc21 (stereo not drawn) | > 100 µM | > 100 µM | > 100 µM | > 100 µM | > 100 µM | > 100 µM | > 100 µM | > 100 µM | > 100 µM | > 100 µM | > 100 µM | > 100 µM | – | – | – | – |
| CC(=O)NC1C(OCc2ccccc2)OC(CO)C(O)C1OC(C)C(=O)NC(C)C(=O)NC(CCC(=O)NCCCCNc1c2ccccc2nc2cccc([N+](=O)[O-])c12)C(N)=O (stereo not drawn) | 0.166 µM | 0.242 µM | 0.0495 µM | 0.838 µM | 3.13 µM | 12.5 µM | 0.562 µM | 0.146 µM | 0.612 µM | 3.55 µM | 12.5 µM | 0.128 µM | – | – | – | – |
| CCC1OC2C(CC=C(C)C)=C3OC(C)(O)C(C)(CC)C(OC(C)=O)C3=C3OC(=O)C=C1C32 (stereo not drawn) | > 100 µM | 63.2 µM | > 100 µM | > 100 µM | 77.5 µM | > 100 µM | > 100 µM | > 100 µM | 69.6 µM | > 100 µM | > 100 µM | > 100 µM | – | – | – | – |
| COC(=O)c1ccc2c(c1)S/C(=C/c1ccc3ccc4cccc5ccc1c3c45)S2 | > 100 µM | > 100 µM | > 100 µM | > 100 µM | > 100 µM | > 100 µM | > 100 µM | > 100 µM | > 100 µM | > 100 µM | > 100 µM | > 100 µM | – | – | – | – |
| O=C(NC1CCN(Cc2ccccc2)CC1)c1ccc(I)cc1 | > 100 µM | > 100 µM | > 100 µM | > 100 µM | > 100 µM | > 100 µM | > 100 µM | > 100 µM | > 100 µM | > 100 µM | > 100 µM | > 100 µM | – | – | – | – |
| COc1ccc(OC)c(N(CN2C(=O)CCC2C(=O)O)C(C)=O)c1 (stereo not drawn) | > 100 µM | > 100 µM | > 100 µM | > 100 µM | > 100 µM | > 100 µM | > 100 µM | > 100 µM | > 100 µM | > 100 µM | > 100 µM | > 100 µM | – | – | – | – |
| O=C(c1cccs1)N(C(=S)OCCOc1ccccc1)c1ccccc1 | 87.8 µM | > 100 µM | 84.7 µM | > 100 µM | 67.9 µM | 37.1 µM | > 100 µM | 73.7 µM | 79.2 µM | 73.5 µM | > 100 µM | > 100 µM | – | – | – | – |
| C=C1CC(c2ccc(OCCCN3C(=O)c4ccccc4C3=O)cc2)OC1=O (stereo not drawn) | 9.35 µM | 25.5 µM | 6.84 µM | 39.2 µM | 4.06 µM | 9.09 µM | 20.4 µM | 5.23 µM | 4.57 µM | 27.5 µM | 3.16 µM | 14.5 µM | – | – | – | – |
| CCOP1(=O)CC(C)=C(Cl)C(O)C1 (stereo not drawn) | > 100 µM | > 100 µM | > 100 µM | > 100 µM | > 100 µM | > 100 µM | > 100 µM | > 100 µM | > 100 µM | > 100 µM | > 100 µM | > 100 µM | – | – | – | – |
| O=[N+]([O-])c1ccc(OC2CC3C4C=CC3C2C4)c([N+](=O)[O-])c1 (stereo not drawn) | > 100 µM | > 100 µM | > 100 µM | > 100 µM | > 100 µM and 25.7 µM | > 100 µM | > 100 µM | > 100 µM | > 100 µM | > 100 µM | > 100 µM | > 100 µM | > 100 µM | > 100 µM and 14.1 µM | 91.5 µM and > 31.6 µM | 68.5 µM and > 31.6 µM |
| N#Cc1nc(-c2ccco2)oc1N | > 10 µM | > 10 µM | > 10 µM | > 10 µM | > 10 µM | > 10 µM | > 10 µM | > 10 µM | > 10 µM | > 10 µM | > 10 µM | > 10 µM | – | – | – | – |
| O=c1c2cc(S(=O)(=O)O)ccc2nc(COc2ccc(Oc3ccc(Cl)cc3Cl)cc2)n1-c1ccc(Oc2ccc(Cl)cc2)cc1Cl | 44.3 µM | 67.7 µM | 43.8 µM | 40.6 µM | 94.9 µM | 39.9 µM | 42.3 µM | 40.7 µM | 66.2 µM | 49.2 µM | 83.1 µM | 58.8 µM | – | – | – | – |
| CCOC(=O)C1(C(=O)OCC)[C@@H](c2ccccc2)C2=NO[C@@H]3CCC[C@H]1[C@H]23 | > 100 µM | > 100 µM | > 100 µM | > 100 µM | > 100 µM | > 100 µM | > 100 µM | > 100 µM | > 100 µM | > 100 µM | > 100 µM | > 100 µM | – | – | – | – |
| COC(=O)c1cc2c(c3c1CC(Cc1ccccc1)C3=O)CCC2 (stereo not drawn) | > 100 µM | > 100 µM | > 100 µM | > 100 µM | > 100 µM | > 100 µM | > 100 µM | > 100 µM | > 100 µM | > 100 µM | > 100 µM | > 100 µM | – | – | – | – |
| COc1cc2c(c(O)c1OC)C(=O)[C@@H]1CCC(=O)N1C2 | > 100 µM | > 100 µM | > 100 µM | > 100 µM | > 100 µM | > 100 µM | > 100 µM | > 100 µM | > 100 µM | > 100 µM | > 100 µM | > 100 µM | – | – | – | – |
| CCOC(=O)N1N=C(/C(C)=N/OC)C(C)S1=O (stereo not drawn) | > 100 µM | > 100 µM | > 100 µM | > 100 µM | > 100 µM | > 100 µM | > 100 µM | > 100 µM | > 100 µM | > 100 µM | > 100 µM | > 100 µM | – | – | – | – |
| O=[N+]([O-])/C(C(Cl)=C(Cl)Cl)=C(/Cl)SCc1ccccc1 | 3.04 µM | 43.2 µM | 19.2 µM | 32.7 µM | 1.25 µM | 3.58 µM | 9.67 µM | 3.09 µM | 35.7 µM | 35.6 µM | 3.36 µM | 18.9 µM | – | – | – | – |
| COc1ccc2c(c1)c1c(n2CCN(C)C)-c2ccccc2CC1 | 31.1 µM | 35.5 µM | 26.8 µM | 29.5 µM | 35.8 µM | 29.3 µM | 34.2 µM | 30.4 µM | 27 µM | 34.4 µM | 29.8 µM | 29.8 µM | – | – | – | – |
| C[C@]12C[C@@H](OC(=O)[C@]1(C)O)[C@@H]([C@]1(O)CC[C@H]3[C@@H]4C[C@H]5O[C@]56C[C@H]5O[C@H]5C(=O)[C@]6(C)[C@H]4CC[C@@]31C)C2 | > 50 µM | > 50 µM | > 50 µM | > 50 µM | > 50 µM | > 50 µM | > 50 µM | > 50 µM | > 50 µM | > 50 µM | > 50 µM | > 50 µM | – | – | – | – |
| Clc1cc(Cl)cc(N=C/C=C/Nc2cc(Cl)cc(Cl)c2)c1 | 42.5 µM | 53.8 µM | 30.6 µM | 43.1 µM | 49.6 µM | 47.6 µM | > 100 µM | 31.4 µM | 55.8 µM | 89 µM | 66.2 µM | 87 µM | – | – | – | – |
| CSC(=S)Nc1cccc(C)n1 | > 100 µM | > 100 µM | > 100 µM | > 100 µM | > 100 µM | > 100 µM | > 100 µM | > 100 µM | > 100 µM | > 100 µM | > 100 µM | > 100 µM | – | – | – | – |
| CC1=NC(=Cc2ccccc2O)C(=O)N1n1c(-c2ccccc2)nc2ccccc2c1=O | > 100 µM | > 100 µM | > 100 µM | > 100 µM | > 100 µM | > 100 µM | > 100 µM | > 100 µM | > 100 µM | > 100 µM | > 100 µM | > 100 µM | – | – | – | – |
| Cc1ccc(-c2nc(N/N=C/C=C/c3ccccc3)c3ccccc3n2)cc1 | > 100 µM | > 100 µM | > 100 µM | > 100 µM | > 100 µM | > 100 µM | > 100 µM | > 100 µM | > 100 µM | > 100 µM | > 100 µM | 38.7 µM | – | – | – | – |
| Oc1ccc2cc(Br)ccc2c1-c1c(O)ccc2ccc(Br)cc12 | 30.4 µM | 29.3 µM | 29 µM | 30.4 µM | 20.4 µM | 33.1 µM | 24.2 µM | 28.2 µM | 20.7 µM | 24.6 µM | 35.8 µM | 31.2 µM | – | – | – | – |
| O=C(c1ccccc1)N(C(=O)c1ccccc1)c1nc(SCc2ccccc2)ns1 | > 100 µM | > 100 µM | 65.3 µM | > 100 µM | 78 µM | 86.1 µM | 86.3 µM | 70.5 µM | > 100 µM | > 100 µM | > 100 µM | 84.5 µM | – | – | – | – |
| COC(=O)[C@]1(NC(=O)c2ccccc2)C[C@H]1C=O | > 100 µM | > 100 µM | > 100 µM | > 100 µM | > 100 µM | > 100 µM | > 100 µM | > 100 µM | > 100 µM | > 100 µM | > 100 µM | > 100 µM | – | – | – | – |
